Data: patent US10611778B2, “Fused bicyclic inhibitors of menin-MLL interaction” (Janssen Pharmaceutica NV, priority 2016, dated 2020)
Read-outs that look alike come from different tables or passages of the source.

Experiments:
[1] = target: T1, Menin/MLL (terbium chelate-labeled menin, FITC-MBM1 peptide) (Homo sapiens, UniProt O00255, T541A); experiment: Menin/MLL homogenous time-resolved fluorescence (HTRF) assay; assay type: binding
T1 construct: Menin (a.a. 1-610-6×his tag) was labeled with terbium cryptate as follows
T1 sequence (O00255 with tags, fused parts or gaps T541A): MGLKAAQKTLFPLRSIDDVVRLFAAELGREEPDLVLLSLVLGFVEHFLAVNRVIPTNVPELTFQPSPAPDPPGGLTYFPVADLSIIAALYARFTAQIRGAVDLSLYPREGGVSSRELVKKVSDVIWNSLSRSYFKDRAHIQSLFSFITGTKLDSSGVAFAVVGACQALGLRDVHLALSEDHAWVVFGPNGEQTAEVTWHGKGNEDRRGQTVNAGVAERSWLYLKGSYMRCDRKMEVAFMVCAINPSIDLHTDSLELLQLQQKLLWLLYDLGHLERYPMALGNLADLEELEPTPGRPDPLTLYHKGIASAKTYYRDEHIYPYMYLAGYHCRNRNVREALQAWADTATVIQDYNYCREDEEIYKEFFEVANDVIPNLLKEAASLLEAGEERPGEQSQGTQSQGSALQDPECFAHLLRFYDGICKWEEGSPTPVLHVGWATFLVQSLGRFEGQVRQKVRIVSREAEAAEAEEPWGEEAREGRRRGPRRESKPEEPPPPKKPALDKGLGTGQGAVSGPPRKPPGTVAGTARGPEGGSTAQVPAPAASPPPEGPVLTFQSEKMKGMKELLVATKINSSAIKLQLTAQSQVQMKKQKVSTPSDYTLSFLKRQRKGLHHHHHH
Procedure: 3) Menin/MLL Homogenous Time-Resolved Fluorescence (HTRF) Assay
To an untreated, white 384-well microtiter plate was added 40 nL 200× test compound in DMSO and 4 μL 2× terbium chelate-labeled menin (vide infra for preparation) in assay buffer (40 mM Tris-HCl, pH 7.5, 50 mM NaCl, 1 mM DTT and 0.05% Pluronic F-127). After incubation of test compound and terbium chelate-labeled menin for 5 min at ambient temperature, 4 μL 2×FITC-MBM1 peptide (FITC-β-alanine-SARWRFPARPGT-NH2) in assay buffer was added, the microtiter plate centrifuged at 1000 rpm for 1 min and the assay mixtures incubated for 15 min at ambient temperature. The relative amount of menin⋅FITC-MBM1 complex present in an assay mixture is determined by measuring the homogenous time-resolved fluorescence (HTRF) of the terbium/FITC donor/acceptor fluorophore pair using a BMG Pherastar plate reader (ex. 337 nm/terbium em. 490 nm/FITC em. 520 nm) at ambient temperature. The degree of fluorescence resonance energy transfer (the HTRF value) is expressed as the ratio of the fluorescence emission intensities of the FITC and terbium fluorophores (F^em 520 nm/F^em 490 nm). The final concentrations of reagents in the binding assay are 100 pM terbium chelate-labeled menin, 75 nM FITC-MBM1 peptide and 0.5% DMSO in assay buffer. Dose-response titrations of test compounds are conducted using an 11 point, three-fold serial dilution scheme, starting at 31 μM.
Compound potencies were determined by first calculating % inhibition at each compound concentration according to equation 1: % inhibition=((HC−LC)−(HTRF^compound−LC))/(HC−LC))*100 (Eqn 1)
Where LC and HC are the HTRF values of the assay in the presence or absence of a saturating concentration of a compound that competes with FITC-MBM1 for binding to menin, and HTRF^compound is the measured HTRF value in the presence of the test compound. HC and LC HTRF values represent an average of at least 16 replicates per plate.
Where Bottom and Top are the lower and upper asymptotes of the dose-response curve, respectively, IC50 is the concentration of compound that yields 50% inhibition of signal and h is the Hill coefficient.
Preparation of Terbium cryptate labeling of Menin: Menin (a.a. 1-610-6×his tag) was labeled with terbium cryptate as follows. 2 mg of Menin was buffer exchanged into 1× phosphate buffered saline. 16 uM Menin was incubated with 4-fold molar excess NHS-terbium cryptate (Cisbio Bioassays, Bedford, Mass.) for 2 hours at room temperature. The labeled protein was purified away from free label by running the reaction over a Superdex 200 Increase 10/300 GL column at 0.75 ml/min. Peak fractions were collected, aliquoted and frozen at −80° C.

[2] = system: MV-4-11; experiment: Proliferation assay (spheroid assay) MV-4-11; assay type: cell-based, human; conditions: Homo sapiens, MV4-11, MV-4-11; averaged values over all measurements; read-out: Spheroid assay MV-4-11 (IC50)
Procedure: The anti-proliferative effect of menin/MLL protein/protein interaction inhibitor test compounds was assessed in human leukemia cell lines. The cell lines MV-4-11 and MOLM14 harbor MLL translocations and express the MLL fusion proteins MLL-AF4 and MLL-AF9, respectively, as well as the wildtype protein from the second allele. […] K562 and KG1 were used as a control cell lines containing two MLL wildtype alleles in order to exclude compounds that display general cytotoxic effects.
MV-4-11 and MOLM14 were cultured in RPMI-1640 (Sigma Aldrich) supplemented with 10% fetal bovine serum (HyClone), 2 mM L-glutamine (Sigma Aldrich) and 50 μg/ml gentamycin (Gibco). K562 were propagated in RPMI-1640 (Sigma Aldrich) supplemented with 20% fetal bovine serum (HyClone), 2 mM L-glutamine (Sigma Aldrich) and 50 μg/ml gentamycin (Gibco). KG1 were cultured in Iscove's MDM (Gibco) supplemented with 20% fetal bovine serum (HyClone), 2 mM L-glutamine (Sigma Aldrich) and 50 μg/ml gentamycin (Gibco).
In order to assess the anti-proliferative effects, 1,500 MV-4-11, 300 MOLM14, 750 K562 or 1,300 KG1 cells were seeded in 200 μl media per well in 96-well round bottom, ultra-low attachment plates (Costar, catalogue number 7007). Cell seeding numbers were chosen based on growth curves to ensure linear growth throughout the experiment. Test compounds were added at different concentrations and the DMSO content was normalized to 0.3%. Cells were incubated for 8 d at 37° C. and 5% CO2. Spheroid like growth was monitored in real-time by live-cell imaging (IncuCyteZOOM, Essenbio, 4× objective) acquiring one image every four hours for 8 d. Confluence (%) as a measure of spheroid size was determined using an integrated analysis tool.
In order to determine the cumulative effect of the test compounds over time, the area under the curve (AUC) in a plot of confluence against time was calculated. Confluence at the beginning of the experiment (t=0) was used as baseline for the AUC calculation.
Absolute IC50 values were calculated according to the following procedure: % Control=(AUC sample/AUC control)*100
AUC control=mean AUC of control values (cells without compound/DMSO as vehicle control)
A non-linear curve fit was applied using the least squares (ordinary) fit method to the plot of % control versus compound concentration. Based on this, the absolute IC50 value (half maximal inhibitory concentration of the test compound causing an anti-proliferative effect of 50% relative to the vehicle control) was calculated.

[3] = averaged values over all measurements, read-out: Menin HTRF assay (IC50)

IC50 [1, 3] [nM]	IC50 [2] [nM]	IC50 ([1]; individual measurements (not averaged), read-out: (3) Menin HTRF assay (IC50 (nM))) [nM]	Compound
8330			Cn1cc(CN2C(=O)C[C@H]3CCN(c4ncnc5sc(CC(F)(F)F)cc45)C[C@H]32)cn1 (single isomer, unassigned) [Compound 35A]
> 25000			Cn1cc(CN2C(=O)C[C@@H]3CCN(c4ncnc5sc(CC(F)(F)F)cc45)C[C@@H]32)cn1 (single isomer, unassigned) [Compound 35B]
208	2300		Fc1cncc(CN2CC[C@@H]3CN(c4ncnc5sc(CC(F)(F)F)cc45)C[C@@H]3C2)c1 (single isomer, unassigned) [Compound 38]
97	1300		FC(F)(F)Cc1cc2c(N3C[C@H]4CCN(Cc5cncc(Cl)c5)C[C@H]4C3)ncnc2s1 (single isomer, unassigned) [Compound 43]
446			FC(F)(F)Cc1cc2c(N3C[C@H]4CCN(CCc5ccccc5)C[C@H]4C3)ncnc2s1 (single isomer, unassigned) [Compound 48]
281			FC(F)(F)Cc1cc2c(N3C[C@H]4CCN(Cc5ccncn5)C[C@H]4C3)ncnc2s1 (single isomer, unassigned) [Compound 50]
252			FC(F)(F)Cc1cc2c(N3C[C@H]4CCN(Cc5cnccn5)C[C@H]4C3)ncnc2s1 (single isomer, unassigned) [Compound 53]
492			O=c1cc(CN2CC[C@@H]3CN(c4ncnc5sc(CC(F)(F)F)cc45)C[C@@H]3C2)cc[nH]1 (single isomer, unassigned) [Compound 66]
985			Cn1cc(CN2CC[C@@H]3CN(c4ncnc5sc(CC(F)(F)F)cc45)C[C@@H]3C2)cn1 (single isomer, unassigned) [Compound 71A]
991			FC(F)(F)Cc1cc2c(N3C[C@H]4CN(Cc5cccnc5)CC[C@H]4C3)ncnc2s1 (single isomer, unassigned) [Compound 72]
2460			FC(F)(F)Cc1cc2c(N3C[C@H]4CCN(CC(F)(F)F)C[C@H]4C3)ncnc2s1 (single isomer, unassigned) [Compound 73]
2220			FC(F)CN1CC[C@@H]2CN(c3ncnc4sc(CC(F)(F)F)cc34)C[C@@H]2C1 (single isomer, unassigned) [Compound 74]
201			CC(C)[C@H](c1cnn(C)c1)N1CC[C@@H]2CN(c3ncnc4sc(CC(F)(F)F)cc34)C[C@@H]2C1 (single isomer, unassigned) [Compound 77A]
1620			CC(C)[C@@H](c1cnn(C)c1)N1CC[C@@H]2CN(c3ncnc4sc(CC(F)(F)F)cc34)C[C@@H]2C1 (single isomer, unassigned) [Compound 77B]
520			CC(C)[C@H](c1cnn(C)c1)N1CC[C@H]2CN(c3ncnc4sc(CC(F)(F)F)cc34)C[C@H]2C1 (single isomer, unassigned) [Compound 78A]
1320			CC(C)[C@@H](c1cnn(C)c1)N1CC[C@H]2CN(c3ncnc4sc(CC(F)(F)F)cc34)C[C@H]2C1 (single isomer, unassigned) [Compound 78B]
955			C[C@H](c1cnn(C)c1)N1CC[C@@H]2CN(c3ncnc4sc(CC(F)(F)F)cc34)C[C@@H]2C1 (single isomer, unassigned) [Compound 79A]
964			C[C@@H](c1cnn(C)c1)N1CC[C@@H]2CN(c3ncnc4sc(CC(F)(F)F)cc34)C[C@@H]2C1 (single isomer, unassigned) [Compound 79B]
20			Cn1cc(CN2CC[C@@H]3CN(c4ncnc5sc(CC(F)(F)F)cc45)C[C@@H]3C2)cn1 (single isomer, unassigned) [Compound 87]
267			COc1ncc(CN2CC[C@@H]3CN(c4ncnc5sc(CC(F)(F)F)cc45)C[C@@H]3C2)cn1 (single isomer, unassigned) [Compound 88]
317			Cc1ncc(CN2CC[C@@H]3CN(c4ncnc5sc(CC(F)(F)F)cc45)C[C@@H]3C2)cn1 (single isomer, unassigned) [Compound 90]
504			FC(F)(F)Cc1cc2c(N3C[C@H]4CCN(CC5(F)CCOCC5)C[C@H]4C3)ncnc2s1 (single isomer, unassigned) [Compound 98]
375			FC(F)(F)Cc1cc2c(N3C[C@H]4CCN(Cc5cncnc5)C[C@H]4C3)ncnc2s1 (single isomer, unassigned) [Compound 104]
714			CC(C)(C)OC(=O)N1CCC(O)(CN2CC[C@@H]3CN(c4ncnc5sc(CC(F)(F)F)cc45)C[C@@H]3C2)CC1 (single isomer, unassigned) [Compound 109]
		244	OCCn1cc(CN2CCC3CN(c4ncnc5sc(CC(F)(F)F)cc45)CCC32)cn1 (centres unmarked) [Compound 24]
546			CC(C)CN1CCC2CN(c3ncnc4sc(CC(F)(F)F)cc34)CCC21 (centres unmarked) [Compound 25]
4530			Cn1cc(CN2CC[C@@H]3CN(c4ncnc5sc(CC(F)(F)F)cc45)C[C@@H]32)cn1 [Compound 27C]
~6910			Cn1cc(CN2CC[C@H]3CN(c4ncnc5sc(CC(F)(F)F)cc45)C[C@H]32)cn1 [Compound 27D]
933			O=C([C@@H]1CCCN1)N1CC[C@@H]2CN(c3ncnc4sc(CC(F)(F)F)cc34)C[C@@H]2C1 [Compound 80]
985			O=C([C@@H]1CCCN1)N1CC[C@H]2CN(c3ncnc4sc(CC(F)(F)F)cc34)C[C@H]2C1 [Compound 83]
